Experimental data taken from article PMC8318231, “Rate-of-Kill (RoK) assays to triage large compound sets for Chagas disease drug discovery: Application to GSK Chagas Box” (PLoS Neglected Tropical Diseases, 2021).
Where two headings read alike, the source gives them in different places.

How the values were obtained:
[1] = tested on: H9c2 (rat cardiomyocytes); test: RoK assay, number of host cells nuclei (drug-related cytotoxicity, H9c2 output, Cmin_Tox); settings: H9c2 host cells
Protocol: For this high-content intracellular imaging assay, H9c2 cells were seeded in 225 cm^2 T- FLASK in DMEM with 10% FBS for 4 h to allow attachment. T. cruzi trypomastigotes, collected at days 5 to 8 after infection from LLC-MK2 parasite infected cultures, were allowed to swim out for 4 h at 37°C from a centrifuged pellet (1,600 x g / 10 min). Trypomastigotes were then collected and counted in a CASY Cell Counter using the 60 μm capillary. […] Cells were washed once with PBS before incubation of the infected H9c2 monolayer with trypsin (Life-Technologies) to detach cells from the flask. Cells were counted in a CASY Cell Counter, using the 150 μm capillary, and their density set at 5 x 10^4 cells/mL in supplemented DMEM. Infected H9c2 were dispensed into 384-well plates at 50 μL per well using a Multidrop Combi dispenser. Control wells used to determine a 100% parasitic growth (full 6th column of each plate) were left untreated, whereas not infected cells were added in the control wells used as 0% parasite growth (or 100% parasite growth inhibition; full 18th column of each plate). The four plates corresponding to each RoK assay were predispensed for the same mother plate. […] Cultures were then fixed and stained with 50 μL per well of a PBS solution containing 4% formaldehyde and 2 μM DRAQ5 DNA dye (BioStatus, UK). Then plates were read in a PerkinElmer Opera Phenix using a 20x objective, 3 fields per well. DRAQ5 signal was detected using 640 nm excitation laser and a 690/50 nm emission detection filter. Automated image analysis was performed with a script developed on Acapella High Content Imaging and Analysis Software (PerkinElmer). Two outputs were provided for each sample well: (1) number of host cells nuclei to determine drug-related cytotoxicity (aka H9c2) and (2) number of amastigotes per cell as infection level measurement (aka AM/CELL). Each output is plotted as a time course for each compound at every concentration. This assay was adapted from Alonso-Padilla et al. and Peña et al..
• ME (Maximum Effect) is the maximum percentage of parasite burden reduction reached by any compound concentration. Compounds that decrease the initial parasite load will show a positive value of ME, whereas compounds that allow the progression of infection will render a negative ME value. […] It is calculated for the MCC50 (t50%_MCC50) and for the maximum concentration (t50%_Cmax). […] The value of this parameter is not either interpolated or extrapolated, and it refers to the first experimental time-course point at which a 50% of effect is reached or exceeded. • tlag defines the time elapsed for one particular concentration to reduce parasite burden between two consecutive points at any moment of the time course. It is calculated for the MCC50 (tlag_MCC50) and for the maximum concentration (tlag_Cmax). The value of this parameter is not either interpolated or extrapolated, and it refers to the first experimental time-course point of a positive slope in the normalised plot (i.e. %Cidal_Response). • Cmin_Tox (Minimal CytoToxic Concentration) is the lowest compound concentration that is reducing the number of host mammalian cells below 50% of initial cell density. Cytotoxic compounds may mislead a bona fide antiparasitic action. Therefore, this descriptor is used to flag this kind of compounds and warn about the genuine meaning of the rest of descriptors.

[2] = tested on: T. cruzi Tulahuen trypomastigotes; test: T. cruzi trypomastigote assay (Cell Titer-Glo viability, ATP luminescence); assay type: cell-based, Trypanosoma cruzi; settings: for Trypomastigotes pIC50 48 hours: 48 hours incubation; for Trypomastigotes pIC50 48 hours / Trypomastigotes pIC50 72 hours: pIC50 = -log10 IC50 in molar units; for Trypomastigotes pIC50 72 hours: 72 hours incubation; for activity in trypomastigotes assay (in words): 48 and 72 hours; for IC50: Trypanosoma cruzi, TULAHUEN
How it was run: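 Compounds were tested in dose response or once at a final 5 μM against 5 × 10^4 trypomastigotes per well (DMEM, 2% FBS), collected on days 5–8 from LLC-MK2 infected cultures. ATP luminescence via CellTiter-Glo reports live parasites; DMSO defines 0% and cell-free wells 100% effect.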

[3] = 72 hours, plotted values, censored values given without sign
[4] = trypomastigote assay, 48 h, figure 1A
[5] = trypomastigote assay, 72 h, figure 1A
[6] = trypomastigote assay, 72 h, figure 1B
[7] = 48 h, read-out: Trypomastigotes pIC50 48 hours (converted)
[8] = 72 h, read-out: Trypomastigotes pIC50 72 hours (converted)

| SMILES | Cmin_Tox [1] [µM] | Trypomastigotes pIC50 48 hours [2] | Trypomastigotes pIC50 72 hours [2] | 72 pIC50 (trypomastigotes, raw data of Fig 1D) [2, 3] | 48 pIC50 [2, 4] | 72 pIC50 [2, 5] | 72 pIC50 [2, 6] | other results |
| --- | --- | --- | --- | --- | --- | --- | --- | --- |
| O=C(O)C(F)(F)F.O=c1oc2ccccc2n1C1CCN(Cc2ccccc2-c2cccnc2)CC1 [TCMDC-143389] | >50 | < 4.3 | < 4.3 | < 4.3 | < 4.3 | < 4.3 | < 4.3 |  |
| COc1cc(C(C)C)c(S(C)(=O)=O)cc1C(=O)N1CCN(c2ccccc2Cl)CC1 [TCMDC-143097] | >50 | < 4.3 | < 4.3 | < 4.3 | < 4.3 | < 4.3 | < 4.3 |  |
| N#Cc1ccc(S(=O)(=O)N2CCC3(CCN(c4ccccc4)C3=O)CC2)cc1 [TCMDC-143371] | >50 | < 4.3 | < 4.3 | < 4.3 | < 4.3 | < 4.3 | < 4.3 |  |
| Cc1[nH]nc2c1C(c1ccc(OCc3ccccc3F)cc1)SCC(=O)N2 (centres unmarked) [TCMDC-143328] | >50 | 5.1 | 5.1 | 5.1 | 5.1 | 5.1 | 5.1 |  |
| CC(C)Nc1nccc(-c2c(-c3ccc(F)cc3)ncn2C2CCOCC2)n1 [TCMDC-143379] | >50 | < 4.3 | < 4.3 | < 4.3 | < 4.3 | < 4.3 | < 4.3 |  |
| COc1cccc(C(=O)[C@H]2C[C@@H]2CN(Cc2cccnc2)Cc2cccnc2)c1 [TCMDC-143593] | >50 | 5.2 | < 4.3 |  |  |  |  |  |
| COc1ccc(-c2nc3ncccc3o2)cc1NC(=O)c1cccs1 [TCMDC-143137] | >50 | < 4.3 | 5.2 |  |  |  |  | activity in trypomastigotes assay (in words) [2]: only active in trypomastigote assay at 72 hours |
| CC(C)c1cc(C(=O)N2CCCC(c3cc4ncccc4[nH]3)C2)on1 (centres unmarked) [TCMDC-143439] | >50 | 5.3 | 5.3 | 5.3 | 5.3 | 5.3 | 5.3 |  |
| CS(=O)(=O)c1cccc(-c2cnc(N)c3c(-c4ccc(CO)cc4)csc23)c1.O=C(O)C(F)(F)F [TCMDC-143410] | >50 | 4.5 | 4.4 |  |  |  |  |  |
| O=C(CSc1ccc(F)cc1)N[C@@H](Cc1cnc[nH]1)C(=O)NCCc1ccccc1.O=C(O)C(F)(F)F [TCMDC-143317] | >50 | < 4.3 | < 4.3 | < 4.3 | < 4.3 | < 4.3 | < 4.3 |  |
| O=c1[nH]cnc2c([C@@H]3O[C@H](CO)[C@@H](O)[C@H]3O)n[nH]c12 [TCMDC-143083, Formycin B] | >50 |  |  |  |  |  |  | activity versus trypomastigotes at 48 hours (in words) ([2]; 48 hours): inactive; activity versus trypomastigotes at 72 hours (in words) ([2]; 72 hours): active; IC50 [2, 7]: > 50100 nM; IC50 [2, 8]: 2510 nM |
| NC(=O)c1ccccc1Nc1nc(NC2CCCCC2)nc2[nH]ccc12 [TCMDC-143314] | 1.9 | 5.1 | 4.4 |  |  |  |  |  |
| CCn1nccc1CN(C)C(=O)C=Cc1ccc(Cl)cc1 [TCMDC-143325] | >50 | < 4.3 | < 4.3 | < 4.3 | < 4.3 | < 4.3 | < 4.3 |  |
| CC1CS(=O)(=O)CCN1/N=C/c1ccc([N+](=O)[O-])o1 (centres unmarked) [Nifurtimox, nifurtimox, reference compound] | >50 |  |  |  |  |  |  | activity in trypomastigotes assay (in words) [2]: active; IC50 [2, 7]: 1260 nM; IC50 [2, 8]: 1260 nM; IC50 ([2]; 72 hours, plotted values, censored values given without sign, read-out: 72 pIC50 (trypomastigotes, raw data of Fig 1D) (converted)): 1260 nM; IC50 ([2]; trypomastigote assay, 48 h, figure 1A, read-out: 48 pIC50 (converted)): 1260 nM; IC50 ([2]; trypomastigote assay, 72 h, figure 1A, read-out: 72 pIC50 (converted)): 1260 nM; pIC50 versus trypomastigotes ([2]; invariable at the two incubation times tested): 5.9 |
| CN(C(=O)Nc1ccc2c(c1)CCN(C1CCC1)CC2)c1ccc(C#N)cc1.Cl [TCMDC-143526] | >50 | < 4.3 | < 4.3 | < 4.3 | < 4.3 | < 4.3 | < 4.3 |  |
| Cc1nnnn1-c1cccc(C(=O)N2CCC[C@@]3(C)c4ncncc4CCC23)c1 (some centres unmarked) [TCMDC-143148] | >50 | < 4.3 | < 4.3 | < 4.3 | < 4.3 | < 4.3 | < 4.3 |  |
| Cc1cc2cncn2c(C2CCCCN2C(=O)c2cccs2)n1 (centres unmarked) [TCMDC-143500] | >50 | < 4.3 | < 4.3 | < 4.3 | < 4.3 | < 4.3 | < 4.3 |  |
| O=C(CN(c1cccc(C(F)(F)F)c1)S(=O)(=O)c1ccc(Cl)cc1)NCc1ccc(F)c(F)c1 [TCMDC-143548] | >50 | 5 | 4.9 |  |  |  |  |  |
| Cc1c(C#N)c([N+](=O)[O-])nn1Cc1cccc(Cl)c1Cl [TCMDC-143152] | >50 | 6.1 | 6.1 | 6.1 | 6.1 | 6.1 | 6.1 |  |
| CN(C)CCOc1ccc(N2CCN(S(=O)(=O)c3ccc(Cl)cc3)CC2)cc1 [TCMDC-143622] | >50 | < 4.3 | < 4.3 | < 4.3 | < 4.3 | < 4.3 | < 4.3 |  |
| COc1ccc(NS(=O)(=O)c2cc(NC(=O)c3ccc([N+](=O)[O-])s3)ccc2OC)cc1 [TCMDC-143163] | >50 | 6.9 | 6.6 |  |  |  |  | activity in trypomastigotes assay (in words) [2]: potent activity |
| CCCN(Cc1ccc(OC)c(OC)c1)Cc1cc(=O)c2c(C)cc(C)cc2[nH]1 [TCMDC-143331] | >50 | 5.4 | 5.6 |  |  |  |  | activity in trypomastigotes assay (in words) [2]: active |
| CC(=O)Nc1ccc(-c2noc(CC3CCCN(Cc4cccc(F)c4C)C3)n2)cc1 (centres unmarked) [TCMDC-143362] | 50.0 | 5.2 | 5.3 |  |  |  |  |  |
| CCCc1nc2nc(N)nc(N)c2cc1CC [TCMDC-143606] | >50 | 5.9 | 5.8 |  |  |  |  |  |
